Where a SMILES comes first, the peptide text is derived from it.
Species: Bos taurus
Assay: Electromyographic activity is measured as mean of the ratio of the height of the muscle action potential generated by the tenth impulse to the initial impulse in bovine thymus extracts at 10 mg
Format: functional, Muscle tissue

Row | SMILES | Mean
1 | CC(C)[C@H](NC(=O)[C@H](CC(=O)O)NC(=O)[C@H](CCCCN)NC(=O)[C@@H](N)CCCN=C(N)N)C(=O)N[C@@H](Cc1ccc(O)cc1)C(=O)O [THYMOPENTIN] (H-RKDVY-OH) | 0.83
2 | CC(C)[C@H](/N=C(\S)[C@H](CC(=O)O)NC(=O)[C@H](CCCCN)NC(=O)[C@@H](N)CCCN=C(N)N)C(=O)N[C@@H](Cc1ccc(O)cc1)C(=O)O | 0.89
3 | CC(C)[C@H](NC(=O)[C@H](CC(=O)O)NC(=O)[C@H](CCCCN)/N=C(\S)[C@@H](N)CCCN=C(N)N)C(=O)N[C@@H](Cc1ccc(O)cc1)C(=O)O | 0.85
4 | CC(C)[C@H](NC(=O)[C@H](CC(=O)O)NC(=O)[C@H](CCCCN)NC(=O)[C@@H](N)CCCN=C(N)N)/C(S)=N/[C@@H](Cc1ccc(O)cc1)C(=O)O | 0.84
5 | CC(C)[C@H](NC(=O)[C@H](CC(=O)O)/N=C(\S)[C@H](CCCCN)NC(=O)[C@@H](N)CCCN=C(N)N)C(=O)N[C@@H](Cc1ccc(O)cc1)C(=O)O | 0.83

Reference: ChEMBL document CHEMBL1159166, “Chemoselective thioacylation of amino acids. Preparation of the four monothiothymopentin analogs and their biological activity” (1993)
